According to US7879914B2, “Methods for treating viral infections using polyamine analogs” (Pathlogica LLC, priority 2005, dated 2011):
Entries after “also recorded” stand apart in the source; their conditions may differ. Read-outs that look alike come from different tables or passages of the source.

Key:
[1] = system: CD14/CD16+ blood macrophages from HIV positive patients; experiment: Susceptibility assay: killing of CD14/CD16+ blood macrophages from HIV patients; format: cell-based; details: for EC50: Homo sapiens, Macrophage, advanced HIV disease, read-out: Mean ED50
Method: The following procedures/protocols were used in some of the examples that follow. All steps were performed in a biological safety cabinet using Universal Precautions for handling human blood samples and standard aseptic techniques.
Blood was drawn in heparinized tubes (green top Vacutainer tubes from Becton-Dickson) and Percol gradient separated into peripheral blood mononuclear cells (PBMCs), according to the following procedure. Aliquots of no more than 25 mL whole blood were transferred into clean, sterile, prelabeled 50 mL conical tubes. Using a sterile 25 mL pipet, equal volume of PBS (Mg^+2/Ca^+2 free) was added to the whole blood and the tubes were inverted 2 or 3 times. […] (For example: 10 mL whole blood +10 mL PBS.)
The diluted blood was slowly and carefully layered over the sterile Percol in amounts of 15-20 mL by holding the pipet at a 45 degree angle, relative to the Percol tube, and slowly dripping the diluted blood down the side of the tube. The resulting mixture was centrifuged at 2100 RPM for 30 minutes at 25° C. The buffy coat (i.e., the white layer between the yellow plasma on top and clear Percol solution below) so obtained was then slowly aspirated, taking care not to aspirate the Percol. The buffy coat was resuspended in sterile PBS (Mg^+2/Ca^+2 free) and the volume was brought up to 50 mL. The mixture was gently mixed by slowly pipetting up and down 3 times and the cell suspension was centrifuged at 1500 RPM for 10 minutes at 25° C. The supernatant was discarded and the bottom of the tube gently tapped to dislodge the cell pellet.
The PBMC for the susceptibility assays was prepared in accordance with the following procedures. A cell culture medium was prepared by mixing RPMI+10% FBS+1% sodium pyruvate and filter sterilized using a filter unit with 0.22 micron pore size. The cell pellet was then resuspended in 3 ml of the cell culture medium. The suspension was gently mixed by slowly pipetting up and down 3 times. The cells were counted using a hemacytometer and the cell density was adjusted to 1×10^6 cells/mL in the cell culture medium, followed by mixing by slowly pipetting up and down 3 times. The cells were incubated in a 50 mL sterile polypropylene tube, at 37° C. and 5% CO2 for 1-2 days. The cap was loosened and the tubes were tipped to 30-45 degrees relative to the tray surface. A styrofoam tube rack was used to hold the tubes.
The MGBG drug was prepared in accordance with the following procedures. A primary stock of MGBG was prepared by weighing out enough MGBG to make a 1 molar (M) solution and dissolved in sterile PBS (Mg^+2/Ca^+2 free). The solution was vortexed until all of the MGBG had dissolved. A secondary stock (0.01 M) was prepared from a 1/100 dilution of the primary stock and filter sterilized by passing the solution through a 0.22 micron filter. A working stock (0.001 M or 1,000 microMolar) was prepared from a 1/10 dilution of the secondary stock. The CG47 drug was prepared by an identical procedure.
Drug doses for the susceptibility assays were prepared in accordance with the following procedures. Drug dilutions were prepared at 10-fold higher concentrations than the final desired concentrations. For example a 100 microMolar drug solution was made for a desired final concentration of 10 microMolar. The drugs were diluted an additional 1/10 upon addition to the cell suspension (e.g., 0.1 mL drug +0.9 mL cell suspension). The drug doses for the susceptibility assays were prepared right before use in cell culture media.
Susceptibility assays were conducted in accordance with the following procedures. The MGBG drug as added 1-2 days after PBMC was separated from whole blood. […]

[2] = system: HIV DNA associated with CD14 cells; experiment: HIV DNA in isolated CD14 cells after ex vivo drug exposure, quantitative DNA PCR; format: cell-based
Method: Blood from patients with advanced HIV disease was Percol gradient separated into peripheral blood mononuclear cells (PBMCs) and 5 million cells from each specimen were exposed to a 1 μM concentration of MGBG or control saline for five days. […] After the five day incubation, CD14 immunomagnetic separation with a Miltenyi separation system was performed. Separated CD14 cells from treated and untreated control specimens were evaluated for the level of HIV DNA in each specimen. C-jun, single copy DNA controls were utilized in each specimen to provide the HIV DNA/genomic equivalent values as determined by quantitative DNA PCR analysis as described in Mack, K. D., et al. JAIDS (2003) 33: 308-20. […]
Blood from three patients with advanced HIV disease was Percol gradient separated into peripheral blood mononuclear cells (PBMC's) and 5 million cells from each specimen were exposed to a 10 micromolar concentration of the polyamine analog CG47 or control saline for 5 days. […] Separated CD14 cells from treated and untreated control specimens were evaluated for the level of HIV DNA in each specimen. C-jun, single copy DNA controls were utilized in each specimen to provide the HIV DNA/genomic equivalent values as determined by quantitative DNA PCR analysis as described in Mack et al. (JAIDS). […]

CD16+ monocytes = experiment: Killing of CD16+ monocytes by polyamine biosynthesis inhibitors (Example 6); format: cell-based, human; details: for comparison of effectiveness of both PBIs: FIG. 6, 10 μM, five days
Method: Mononuclear cells were isolated from individuals with HIV infection, uninfected individuals or a patient with ALS and incubated in the absence or presence of increasing concentrations of the PBIs, MGBG (PA-001) and CG47. After five days in culture under non-adherent conditions cells were isolated stained with antibodies to CD14+ and CD16+ and counted by flow cytometry using a FACSCAN (BD-biosciences). The fraction of CD14+ monocytes that expressed CD16 was determined and compared to levels seen in the absence of drug.
Those samples that were relatively resistant to PBIs required 100 μM or more of drug to achieve similar levels of killing. […] Overall 65% to 80% of samples from individuals with HAND were sensitive (>70% killing with 10 μM PBI or less) to PBIs.
The overall results with mononuclear cells from HIV infected individuals, ALS patients, and healthy controls are shown in FIG. 6. […] The number of mononuclear cell samples evaluated in each category were as follows: ALS with PA-001 (MGBG)=6, and with CG47=28. Drug resistant HIV with PA-001=22, and with CG47=48. HAD with PA-001=9, and with CG47=5. Healthy with PA-001=24, and with CG47=15.

[3] = patients, Int. J. Cancer 26, 571 (1980); cited from earlier work

Row | Compound | killing of the CD14/CD16 blood macrophage population ([1]; 10 micromolar, 5 days, PBMCs of three patients with advanced HIV disease) | sensitivity of CD14/CD16+ macrophages from the HIV patient ([1]; FIG. 4, ex vivo) | EC50 ([1]; CG47, mean of 13 patients) | reduction in HIV DNA associated with CD14 cells (average) ([2]; 10 micromolar, 5 days, three blood specimens) | changes in lymphocyte levels (CD16+ monocytes; 10 μM or less) | comparison of effectiveness of both PBIs (CD16+ monocytes) | killing of CD14/16+ cells that contain HIV DNA ([1]; 1 μM) | killing of the CD14/CD16 blood macrophage population ([1]; 1 μM, five days, PBMCs of patients with advanced HIV disease) | killing of HIV infected macrophages, dose dependence ([1]; HIV positive patients, FIG. 1) | killing of HIV-infected macrophages from HAD patients ([1]; HIV-associated dementia (HAD) patients, compared with HIV positive) | EC50 ([1]; MGBG, mean of 10 patients) | reduction in HIV DNA associated with CD14 cells (average) ([2]; 1 μM, five days) | toxicity in an anti-cancer regimen [3]
1 | CCNCCCNC/C=C\CNCCCNCC.Cl.Cl.Cl.Cl [CG47, N,N′-bis(3-ethylaminopropyl)-cis-but-2-ene-1,4-diamine tetrahydrochloride] | > 80% | extremely sensitive | 3500 nM | > 90% | little or no changes | approximately equivalently effective |  |  |  |  |  |  | 
2 | CC(/C=N/NC(=N)N)=N\NC(=N)N [MGBG] |  |  |  |  |  | approximately equivalently effective | Complete killing; also recorded: near quantitative | > 80% | dose-dependent | nearly as effective | 465 nM | > 99% | unacceptably toxic
